Source: ChEMBL document CHEMBL1138268, “Synthesis and evaluation of cis-1-[4-(hydroxymethyl)-2-cyclopenten-1-yl]-5-[(124)I]iodouracil: a new potential PET imaging agent for HSV1-tk expression” (J Med Chem, 2007)

Key:
[1] = Cytotoxicity against MCA-TK cells; assay type: cell-based
[2] = Cytotoxicity against MCA cells; assay type: cell-based
[3] = Metabolic stability in mouse liver microsomes after 30 min; assay type: ADME, Microsome
[4] = Metabolic stability in mouse serum after 6 hrs; assay type: ADME, cell-free

Structure (SMILES)	IC50 [1] [µM]	IC50 [2] [µM]	half-life [3] [h]	half-life [4] [h]
Nc1nc2c(ncn2COC(CO)CO)c(=O)[nH]1 [GANCICLOVIR]	0.15	270	–	–
O=c1[nH]c(=O)n([C@H]2C[C@H](O)[C@@H](CO)O2)cc1I [IDOXURIDINE]	–	–	1.24	22.6
